Data reported in patent US20050112573A1, “Method of detecting toxic substance” (priority 2001, published 2005).

System: yeast genes (level of expressed mRNA)
Experiment: DNA chip analysis of expressed mRNA of yeast genes after 2 h culture with a toxic chemical substance
Format: cell-based, Saccharomyces cerevisiae S288C
Conditions: for The level of expressed mRNA in the presence of chemical substance/ (ratio to absence of chemical substance): stress protein genes, DNA chip
Procedure, shortened: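 S. cerevisiae S288C in YPD at 25 °C was exposed at log phase for 2 h to a growth-inhibiting, non-lethal concentration of the chemical. Poly(A) mRNA was reverse-transcribed with Cy3- or Cy5-dUTP and hybridized to a whole-genome yeast DNA chip (65 °C, >12 h). Values are fluorescence ratios versus untreated cells.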

## C[S+](C)[O-] [(15), dimethylsulfoxide]
Gene YOR267C
  The level of expressed mRNA in the presence of chemical substance/absence: YOR267C: 1.3
Gene YOR325W
  The level of expressed mRNA in the presence of chemical substance/absence: YOR325W: 0.7
Gene YOR336W
  level of expressed mRNA in the presence of chemical substance/in its absence: 0.6
Gene YOR344C
  level of expressed mRNA in the presence of chemical substance/in its absence: 0.7
Gene YOR347C
  level of expressed mRNA in the presence of chemical substance/in its absence: 2.0
Gene YPL005W
  The level of expressed mRNA in the presence of chemical substance/absence: YPL005W: 1.2
Gene YPL017C
  level of expressed mRNA in the presence of chemical substance/in its absence: 1.0
Gene YPL107W, DNA chip fluorescence ratio to control without chemical, 2 hours culture with chemical, growth-inhibiting non-lethal concentration
  The level of expressed mRNA in the presence of chemical substance / the level in the absence of chemical substance, yeast gene YPL107W: 0.7
Gene YPL138C, DNA chip fluorescence ratio to control without chemical, 2 hours culture with chemical, growth-inhibiting non-lethal concentration
  The level of expressed mRNA in the presence of chemical substance / the level in the absence of chemical substance, yeast gene YPL138C: 2.7
Gene YPL150W
  The level of expressed mRNA in the presence of chemical substance/absence: YPL150W: 1.1
Gene YPL151C
  The level of expressed mRNA in the presence of chemical substance/absence: YPL151C: 1.8
Gene YPL152W
  The level of expressed mRNA in the presence of chemical substance/absence: YPL152W: 2.3
Gene YPL168W
  The level of expressed mRNA in the presence of chemical substance/absence: YPL168W: 0.8
Gene YPL180W
  The level of expressed mRNA in the presence of chemical substance/absence: YPL180W: 0.7
Gene YPL188W
  The level of expressed mRNA in the presence of chemical substance/absence: YPL188W: 0.8
Gene YPL221W
  The level of expressed mRNA in the presence of chemical substance/absence: YPL221W: 1.0
Gene YPL225W
  The level of expressed mRNA in the presence of chemical substance/absence: YPL225W: 0.9
Gene YPL249C
  The level of expressed mRNA in the presence of chemical substance/absence: YPL249C: 1.0
Gene YPL260W
  The level of expressed mRNA in the presence of chemical substance/absence: YPL260W: 1.3
Gene YPL265W
  level of expressed mRNA in the presence of chemical substance/in its absence: 1.2
Gene YPR006C
  level of expressed mRNA in the presence of chemical substance/in its absence: 0.7
Gene YPR026W
  level of expressed mRNA in the presence of chemical substance/in its absence: 3.1
Gene YPR049C
  The level of expressed mRNA in the presence of chemical substance/absence: YPR049C: 1.5
Gene YPR061C
  The level of expressed mRNA in the presence of chemical substance/absence: YPR061C: 0.4
Gene YPR093C
  The level of expressed mRNA in the presence of chemical substance/absence: YPR093C: 0.8
Gene YPR146C
  The level of expressed mRNA in the presence of chemical substance/absence: YPR146C: 0.9
Gene YPR148C
  The level of expressed mRNA in the presence of chemical substance/absence: YPR148C: 1.7
Gene YPR150W
  The level of expressed mRNA in the presence of chemical substance/absence: YPR150W: 0.9
Gene YPR158W
  The level of expressed mRNA in the presence of chemical substance/absence: YPR158W: 0.9
Gene YPR169W
  The level of expressed mRNA in the presence of chemical substance/absence: YPR169W: 0.9
Gene YPR172W
  The level of expressed mRNA in the presence of chemical substance/absence: YPR172W: 1.5
Gene YPR174C
  The level of expressed mRNA in the presence of chemical substance/absence: YPR174C: 1.2
Yeast gene YAR010C
  The level of expressed mRNA in the presence of chemical substance/The level of expressed mRNA in the absence of chemical substance: 1.8
Yeast gene YBL005W-A
  The level of expressed mRNA in the presence of chemical substance/The level of expressed mRNA in the absence of chemical substance: 0.9
Yeast gene YBL038W, mitochondria-located protein genes, 2 h culture with chemical
  The level of expressed mRNA in the presence of chemical substance/ (ratio to absence), gene YBL038W: 0.7
Yeast gene YBL041W
  The level of expressed mRNA in the presence of chemical substance/The level of expressed mRNA in the absence of chemical substance: 1.3
Yeast gene YBL043W
  The level of expressed mRNA in the presence of chemical substance/The level of expressed mRNA in the absence of chemical substance: 1.8
Yeast gene YBL078C
  The level of expressed mRNA in the presence of chemical substance/The level of expressed mRNA in the absence of chemical substance: 2.5
Yeast gene YBL093C
  The level of expressed mRNA in the presence of chemical substance/ (ratio to absence of chemical substance): 0.5
Yeast gene YBR036C, ratio of DNA chip fluorescence intensity to that without chemical substance
  The level of expressed mRNA in the presence of chemical substance/ (in its absence), gene YBR036C: 1.5
Yeast gene YBR044C
  The level of expressed mRNA in the presence of chemical substance/ (ratio to absence of chemical substance): 0.9
Yeast gene YBR122C, mitochondria-located protein genes, 2 h culture with chemical
  The level of expressed mRNA in the presence of chemical substance/ (ratio to absence), gene YBR122C: 0.7
Yeast gene YBR214W
  The level of expressed mRNA in the presence of chemical substance/The level of expressed mRNA in the absence of chemical substance: 5.1
Yeast gene YBR251W, mitochondria-located protein genes, 2 h culture with chemical
  The level of expressed mRNA in the presence of chemical substance/ (ratio to absence), gene YBR251W: 0.8
Yeast gene YBR298C, ratio of DNA chip fluorescence intensity to that without chemical substance
  The level of expressed mRNA in the presence of chemical substance/ (in its absence), gene YBR298C: 0.2
Yeast gene YCL020W
  The level of expressed mRNA in the presence of chemical substance/The level of expressed mRNA in the absence of chemical substance: 2.5
Yeast gene YCL027W
  The level of expressed mRNA in the presence of chemical substance/The level of expressed mRNA in the absence of chemical substance: 3.6
Yeast gene YCR004C
  The level of expressed mRNA in the presence of chemical substance/The level of expressed mRNA in the absence of chemical substance: 0.8
Yeast gene YCR046C, mitochondria-located protein genes, 2 h culture with chemical
  The level of expressed mRNA in the presence of chemical substance/ (ratio to absence), gene YCR046C: 1.4
Yeast gene YCR071C
  The level of expressed mRNA in the presence of chemical substance/The level of expressed mRNA in the absence of chemical substance: 1.1
Yeast gene YCR083W, mitochondria-located protein genes, 2 h culture with chemical
  The level of expressed mRNA in the presence of chemical substance/ (ratio to absence), gene YCR083W: 1.0
Yeast gene YCR083W
  The level of expressed mRNA in the presence of chemical substance/ (ratio to absence of chemical substance): 1.0
Yeast gene YCR088W
  The level of expressed mRNA in the presence of chemical substance/The level of expressed mRNA in the absence of chemical substance: 2.8
Yeast gene YDL008W
  The level of expressed mRNA in the presence of chemical substance/The level of expressed mRNA in the absence of chemical substance: 0.7
Yeast gene YDL067C, energy system protein genes, 2 h culture with the chemical, ratio to control without chemical
  The level of expressed mRNA in the presence of chemical substance/ in its absence, gene YDL067C: 0.7
Yeast gene YDL067C, mitochondria-located protein genes, 2 h culture with chemical
  The level of expressed mRNA in the presence of chemical substance/ (ratio to absence), gene YDL067C: 0.7
Yeast gene YDL078C, energy system protein genes, 2 h culture with the chemical, ratio to control without chemical
  The level of expressed mRNA in the presence of chemical substance/ in its absence, gene YDL078C: 0.5
